Consider seven compounds from PubChem BioAssay (NCI).

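How tested: cells in 96-well plates exposed to compound for 48 hours at five concentrations. TGI: concentration producing complete growth inhibition.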

What all share (assay): inhibition of tumour cell growth, NCI panel, 48 h
Experiment [1] relates to UACC-257 melanoma.
For experiment [2], the system named is NCI-H23 lung.
For experiment [3], the system named is HOP-92 NSCLC.
Experiment [4] deals with RPMI-8226 leukemia.
Experiment [5] has as its system SK-MEL-2 melanoma.
Experiment [6] relates to BT-549 breast.
In experiment [7] the test system is SK-MEL-5 melanoma.
Experiment [8] has as its system OVCAR-4 ovarian.
The subject of experiment [9] is SR leukemia.
Experiment [10] concerns COLO 205 colon.
For experiment [11], the system named is HS 578T breast.
Experiment [12] has as its system UACC-62 melanoma.
Experiment [13] relates to IGROV1 ovarian.
The subject of experiment [14] is SN12C renal.
Experiment [15] relates to A498 renal.
The test system of experiment [16] is MOLT-4 leukemia.
In experiment [17] the test system is HT29 colon.
Experiment [18] deals with HCT-15 colon.
Experiment [19] has as its system SK-OV-3 ovarian.

With `Cc1cc(=O)[nH]c2c3c(ccc12)OC(C)(C)C=C3`, the TGI in [1], in [2], in experiment [3], in [4], in [5] and in [6] was greater than 100 µM each time. Moreover, the TGI in experiment [7] was greater than 100 µM; in experiment [8], greater than 100 µM; in experiment [9] it was greater than 100 µM; in [10] it was 12.2 µM; in experiment [11], 32.8 µM; in experiment [12], greater than 100 µM. The TGI was greater than 100 µM in experiment [13]; greater than 49.6 µM in experiment [14]; greater than 87.7 µM in [15]; greater than 100 µM in [16]; greater than 56.4 µM in experiment [17]; greater than 100 µM in experiment [18]. Moreover, the TGI in experiment [19] was greater than 82.9 µM.
As for `Cc1cc2c(=O)[nH]nc(N)c2c(N)n1`, the TGI in experiment [1], in [2], in experiment [3], in experiment [4], in [5] and in experiment [6] was greater than 100 µM in each case. Moreover, the TGI in experiment [7], in experiment [8], in [9], in experiment [10], in experiment [11] and in [12] was greater than 100 µM each time. Further, the TGI in experiment [13], in experiment [14], in experiment [15], in experiment [16], in [17] and in [18] was greater than 100 µM in each case. In experiment [19], this compound displayed a TGI greater than 100 µM.
For `COc1ccccc1OC(=O)/C=C/c1ccccc1`, the TGI in experiment [1], in [2], in [3], in experiment [4], in [5] and in [6] was greater than 100 µM each time. Also, the TGI in experiment [7], in [8], in experiment [9], in [10], in experiment [11] and in experiment [12] was greater than 100 µM each time. Also, the TGI in experiment [13], in [14], in experiment [15], in experiment [16], in [17] and in [18] was greater than 100 µM in each case. Further, the TGI in [19] is greater than 100 µM.
Take `Oc1[nH]c2ccccc2c1N=NC(=S)N1CCCC1`: the TGI in experiment [1] was 29.6 µM; in experiment [2] it was 34.5 µM; in [3], 39.3 µM; in experiment [4], 9.64 µM; in [5], 33.2 µM; in experiment [6], 22.8 µM. For the same compound, the TGI in [7] was 8.5 µM; in [8] it was 32.2 µM; in experiment [9], 3.65 µM; in experiment [10], 27.5 µM; in [11], greater than 72.9 µM; in [12] it was 18.2 µM. The TGI is 15 µM in experiment [13]; 31.9 µM in experiment [14]; 19.2 µM in experiment [15]; 5.75 µM in experiment [16]; greater than 53.5 µM in experiment [17]; 4.29 µM in [18]. Besides, the TGI in [19] stood at 21.6 µM.
As for `COc1ccc(C(=O)c2ccc(-n3c4ccccc4c4ccc5c(c43)C(=O)C=CC5=O)cc2)cc1`, the TGI is 7.05 µM in [1]; 5.18 µM in experiment [2]; 8.66 µM in [3]; greater than 100 µM in experiment [4]; 11.3 µM in [5]; 8.06 µM in experiment [6]. Also, the TGI was 12.9 µM in [7]; 6.37 µM in experiment [8]; greater than 100 µM in [9]; 9.34 µM in experiment [10]; 4.51 µM in experiment [11]; 8.02 µM in experiment [12]. The TGI was 10.4 µM in experiment [13]; 4.01 µM in experiment [14]; 5.09 µM in experiment [15]; greater than 100 µM in experiment [16]; 3.65 µM in [17]; 6.07 µM in experiment [18]. This compound showed a TGI in experiment [19] of 27.5 µM.
In the case of `COc1nc2c(c(=O)n1C)NC(C(O)C(O)CO)C=N2` (stereo not drawn), the TGI in [1], in experiment [2], in [3], in experiment [4], in [5] and in experiment [6] was greater than 10 µM throughout. Also, the TGI in [7], in experiment [8], in experiment [9], in [10], in [11] and in experiment [12] was greater than 10 µM throughout. Besides, the TGI in [13], in experiment [14], in experiment [15], in experiment [16], in [17] and in [18] was greater than 10 µM in each case. Moreover, in experiment [19], the TGI was greater than 10 µM.
As to `Cc1cc(-c2nc3cc(F)ccc3s2)ccc1NC(=O)C(C)N` (stereo not drawn), the TGI in [1] came to 8.88 µM; in [2], 6.24 µM; in experiment [3] it was 9.41 µM; in experiment [4] it was 16.9 µM; in [5], 7.87 µM; in experiment [6], 8.49 µM. Besides, the TGI in experiment [7] amounted to 13.6 µM; in [8], 8.18 µM; in experiment [9], 5.24 µM; in experiment [10] it was 13.6 µM; in experiment [11], 10 µM; in [12] it was 7.7 µM. The TGI is 4.76 µM in [13]; 9.49 µM in experiment [14]; 7.41 µM in [15]; 8.42 µM in experiment [16]; 8.04 µM in experiment [17]; 6.67 µM in experiment [18]. For the same compound, the TGI in experiment [19] was 8.84 µM.
